Values of other authors in publication PMC2796837 (Journal of biological inorganic chemistry : JBIC : a …, 2008).
Read-outs that look alike come from different tables or passages of the source. Each block holds one compound with its values, some of them ahead of it.

Tests used:
[1] = I = 1.0 M KCl, 25°C
[2] = I = 1.0 M KCl, 25°C; remark: listed apart in the source
[3] = I = 1.0 M KCl, 25°C; remark: listed apart in the source
[4] = I = 1.0 M KCl, 25°C; remark: listed apart in the source
[5] = I = 1.0 M KCl, 25°C; remark: listed apart in the source
[6] = I = 1.0 M KCl, 25°C; remark: listed apart in the source
[7] = I = 1.0 M KCl, 25°C; remark: listed apart in the source
[8] = I = 1.0 M KCl, 25°C; remark: listed apart in the source
[9] = I = 1.0 M KCl, 25°C; remark: listed apart in the source
[10] = I = 1.0 M KCl, 25°C; remark: listed apart in the source
[11] = I = 1.0 M KCl, 25°C; remark: listed apart in the source
[12] = Ce^3+ complex
[13] = I = 1.0 M and 25 °C

Compound: O=C(O)CN1CCN(CC(=O)O)CCN(CC(=O)O)CCN(CC(=O)O)CC1 [DOTA]
log K1^H [1]: 12.60
log K2^H [1]: 9.70
log K3^H [1]: 4.50
log K4^H [1]: 4.14
log K5^H [1]: 2.32
log KMgL [2]: 11.15
log KCaL [3]: 16.37
log KCuL [4]: 22.72
log KZnL [5]: 18.17
log KML, Ce^3+ [6]: 23.4
log KML, Nd^3+ [7]: 23.0
log KML, Eu^3+ [8]: 23.5
log KML, Dy^3+ [9]: 24.8
log KML, Yb^3+ [10]: 25.0
log KML, Lu^3+ [11]: 25.4
k1 (proton assisted dissociation rate constant) [12]: 0.0008 M⁻¹ s⁻¹

Compound: O=C([O-])CN1CCN(CC(=O)[O-])CCN(C(CO)C(O)CO)CCN(CC(=O)[O-])CC1.[Gd+3] (centres unmarked) [GdDO3A-butrol]
LD50: 23 mmolkg^−1

Compound: CC(O)CN1CCN(CC(=O)[O-])CCN(CC(=O)[O-])CCN(CC(=O)[O-])CC1.[Gd+3] (centres unmarked) [GdHP-DO3A]
LD50: 12 mmolkg^−1

The remaining lines, values ahead:

log K1^H [13]: 4.83
Compound: CN1CCNCC1 [N-methylpiperazine]

log K1^H [13]: 6.04
Compound: C1CNCCN1 [piperazine]
